# Literature values, collected in US20070105793A1, “Compositions and methods using nicotinic acid for treatment of hypercholesterolemia, hyperlipidemia nd cardiovascular disease” (priority 2005, published 2007).
# How the values were obtained:
# [1] = after ingestion
# [2] = in vivo
# [3] = test system: β-thromboglobulin; conditions: in vivo
SMILES,time of release of niacin into the system by hydrolysis [1],flush [2],impact on blood sugar [2],effect on β-thromboglobulin [3]
"O=C(O[C@H]1[C@H](OC(=O)c2cccnc2)[C@@H](OC(=O)c2cccnc2)[C@H](OC(=O)c2cccnc2)[C@@H](OC(=O)c2cccnc2)[C@H]1OC(=O)c1cccnc1)c1cccnc1 [IHN, inositol hexanicotinate]",around 10 hours,“zero” flush,no negative impact on blood sugar,–
"O=C(O)c1cccnc1 [niacin, nicotinic acid]",–,–,–,does not have a favorable effect on β-thromboglobulin
